Earlier results as cited in US9120722B1, “Optically active valine complex and a method for producing the same” (Wellman Biosciences Co. Ltd., priority 2014, dated 2015).

Settings: for Solubility in water of the sulfonic acid salt with L-valine: salts with L-valine, prior art U.S. Pat. No. 5,689,001 and No. 6,072,083

Compound | Solubility (aqueous solution) (room temperature, stated as known) | Solubility in water of the sulfonic acid salt with L-valine
CC(C)[C@@H](N)C(=O)O [D-valine] | 8-10% | –
CCc1ccc(S(=O)(=O)O)cc1 [p-ethylbenzene sulfonic acid] | – | 14.5%
CC(C)c1ccc(S(=O)(=O)O)cc1 [p-isopropylbenzene sulfonic acid] | – | 7.8%
